Measured values reported in patent publication US20080051454A1, “Compositions and methods for transient receptor potential vanilloid (TRPV) channel mediated treatments” (The Board of Trustees Operating Michigan State University, priority 2006, published 2008).
Values belong to the molecule of their own block, whether it stands above or below them.

Columns and labels:
[1] = tested on: rats; assay: Mean arterial pressure before and after left renal pelvis perfusion (LRPP) treatments; type: in vivo, rat; conditions: for Mean arterial pressure, Treatment: after treatment; for Mean arterial pressure, Baseline: before treatment
Description: Urine flow rate (V, FIG. 3a) and urinary sodium excretion (UNaV, FIG. 3b) of the contralateral kidney are shown (n=5-6 in each group). +vs baseline and all other groups, +p<0.05.

[2] = tested on: TRPV1−/− hearts; assay: Preconditioning (PC) protection against I/R in Langendorff hearts with receptor antagonists, TRPV1-null; set-up: species or system mouse; conditions: CAPZ 10^−7 M, CGRP8-37 10^−6 M, RP67580 10^−7 M
Method: Male TRPV1 gene knockout (TRPV1-/-) strain B6.129S[…][…]^tm1Jul and matching control wild type (WT) strain C57BL/6J mice were used (Jackson Laboratory, Bar Harbor, Me.). Mice were heparinized (500 U/kg i.p.) and anesthetized with pentobarbital sodium (50 mg/kg i.p.). […] The distal end of the catheter was connected to a […] Performance Analyzer via a pressure transducer. Coronary flow (CF) was continuously measured using an ultrasonic flow probe placed in the aortic perfusion line. Hearts were paced at 400 bpm except during ischemic PC and sustained global ischemia to avoid inducing excessive ventricular tachyarrhythmia during reperfusion, and pacing was reinitiated 2 minutes after reperfusion. Left ventricular developed pressure (LVDP, peak systolic minuses LVEDP) and LV peak positive […]) during isovolumic contraction were used as indices of LV systolic function; LVEDP and the peak negative […] used as indices of LV diastolic function. […] Non-preconditioned hearts were time-matched perfused with the same duration as that of preconditioned hearts. Group 1: Controls. As normal controls (nonischemic), WT and TRPV1-/- hearts were perfused for 130 minutes. For I/R controls, WT and TRPV1-/- hearts were first perfused with Krebs-Henseleit buffer for 55 min (time-matched perfusion of the equilibration period plus the PC period), and subsequently subjected to 30 minutes of no-flow normothermic global ischemia followed by 40-minutes of reperfusion. Group 2: PC. […] The hearts were subjected to 30 minutes of no-flow normothermic global ischemia followed by 40-minutes of reperfusion as that of I/R control groups. Group 3: PC plus capsazepine (CAPZ). […] Two additional concentrations of CAPZ, 10^-6M and 10^-8 M, were used in WT hearts. An additional drug control was added. After a 20-minute equilibration period, WT hearts were perfused with CAPZ (10^-7 M) for 10 minutes without PC, followed by perfusion with Krebs-Henseleit buffer for 25 minutes (time-matched perfusion of the PC period) and then subjected to I/R. Group 4: […] […]

[3] = tested on: hearts of WT mice; assay: Langendorff perfused heart, ischemia and reperfusion (I/R) with OLDA, wild type; set-up: species or system mouse; conditions: antagonist 1×10^−6 M
Method: The following measurements were made on the two types of heart tissue: left ventricular end-diastolic pressure (LVEDP), left ventricular developed pressure (LVDP), coronary flow (CF), and left ventricular (LV) peak positive rate of pressure change/rate of time change (+dP/dt) were evaluated after I/R.

[4] = tested on: WT hearts; assay: Preconditioning (PC) protection against I/R in Langendorff hearts with receptor antagonists, wild type; set-up: species or system mouse
Method: Male TRPV1 gene knockout (TRPV1-/-) strain B6.129S[…][…]^tm1Jul and matching control wild type (WT) strain C57BL/6J mice were used (Jackson Laboratory, Bar Harbor, Me.). Mice were heparinized (500 U/kg i.p.) and anesthetized with pentobarbital sodium (50 mg/kg i.p.). […] The distal end of the catheter was connected to a […] Performance Analyzer via a pressure transducer. Coronary flow (CF) was continuously measured using an ultrasonic flow probe placed in the aortic perfusion line. Hearts were paced at 400 bpm except during ischemic PC and sustained global ischemia to avoid inducing excessive ventricular tachyarrhythmia during reperfusion, and pacing was reinitiated 2 minutes after reperfusion. Left ventricular developed pressure (LVDP, peak systolic minuses LVEDP) and LV peak positive […]) during isovolumic contraction were used as indices of LV systolic function; LVEDP and the peak negative […] used as indices of LV diastolic function. […] Non-preconditioned hearts were time-matched perfused with the same duration as that of preconditioned hearts. Group 1: Controls. As normal controls (nonischemic), WT and TRPV1-/- hearts were perfused for 130 minutes. For I/R controls, WT and TRPV1-/- hearts were first perfused with Krebs-Henseleit buffer for 55 min (time-matched perfusion of the equilibration period plus the PC period), and subsequently subjected to 30 minutes of no-flow normothermic global ischemia followed by 40-minutes of reperfusion. Group 2: PC. […] The hearts were subjected to 30 minutes of no-flow normothermic global ischemia followed by 40-minutes of reperfusion as that of I/R control groups. Group 3: PC plus capsazepine (CAPZ). […] Two additional concentrations of CAPZ, 10^-6M and 10^-8 M, were used in WT hearts. An additional drug control was added. After a 20-minute equilibration period, WT hearts were perfused with CAPZ (10^-7 M) for 10 minutes without PC, followed by perfusion with Krebs-Henseleit buffer for 25 minutes (time-matched perfusion of the PC period) and then subjected to I/R. Group 4: […] Two additional concentrations of CGRP8-37, 10^-5 M and 10^-7 M, were used in WT hearts. An additional drug control of CGRP8-37 was added as that of the CAPZ control group. Group 5: PC plus RP67580. To determine the role of endogenous SP during PC, hearts from WT and TRPV1-/-mice were perfused as that of CAPZ with RP67580 (10^-7 M), a selective neurokinin-1 (NK1) receptor antagonist. Two additional concentrations of RP67580, 10^-6 M and 10^-8 M, were used in WT hearts. An additional drug control of RP67580 was added as that of the CAPZ control group.

[5] = tested on: male Wistar rats; assay: Depressor effect of 20-HETE analog DSR given IV, with or without antagonists; type: in vivo, rat; conditions: DSR 1 mg/kg with CAPZ 3 mg/kg, RP67580 4 mg/kg or CGRP 8-37 3 mg/kg
[6] = tested on: WT hearts; assay: Lactate dehydrogenase (LDH) release during I/R; set-up: species or system mouse
Method: Lactate dehydrogenase (LDH) release: In addition to the measurement of cardiac function, cardiac injury was assessed by measuring LDH release. Perfusion effluent was collected during the first 10 minutes to 20 minutes of I/R and stored at […] until analyzed. Total LDH levels were determined with the use of a CytoTox 96 assay (Promega). The data were expressed as absorbance units released per milliliter per minute per gram of heart wet tissues (Turnbull et al., Am J Physiol Heart Circ Physiol 290: […]-9, 2006; herein incorporated by reference).

[7] = tested on: Wistar rats (Con-NS, Con-HS, Cap-NS, Cap-HS); assay: Natriuretic, diuretic and depressor effects of i.v. diuretics in control and capsaicin-pretreated rats on normal or high sodium diet; type: in vivo, rat; conditions: intravenous
Method: (a) Urine flow rate. (b) Urine sodium excretion. […] (c) Mean arterial pressure. […] Vehicle; trichlormethiazide.
(a) Urine flow rate. (b) Urine sodium excretion. […] (c) Mean arterial pressure.
(a) Urine flow rate. (b) Urine sodium excretion. […] (c) Mean arterial pressure. […] Vehicle; amiloride.
Design and methods Neonatal Wistar rats were treated with capsaicin or vehicle. Seven-week-old male rats were treated for 2 weeks with: vehicle plus a normal (Con-NS) or high (Con-HS) sodium diet, and capsaicin pretreatment plus a normal (Cap-NS) or high (Cap-HS) sodium diet. Mean arterial pressure (MAP), renal excretory function, and protein expression determined by Western blot were performed.

SMILES: [Cl-].[K+] [150 KCl, KCl]
Mean arterial pressure, Treatment [1]: 125 ± 4 mmHg
Mean arterial pressure, Baseline [1]: 123 ± 6 mmHg

SMILES: [Cl-].[Na+] [600 mM NaCl, NaCl]
Mean arterial pressure, Treatment [1]: 117 ± 2 mmHg
Mean arterial pressure, Baseline [1]: 115 ± 2 mmHg

SMILES: OC[C@@H](O)[C@@H](O)[C@H](O)[C@H](O)CO [1200 mOsm Mannitol, Mannitol]
Mean arterial pressure, Treatment [1]: 121 ± 7 mmHg
Mean arterial pressure, Baseline [1]: 121 ± 6 mmHg

effect on these parameters in TRPV1−/− hearts [2]: no effect
effect on cardiac function in WT hearts without I/R [4]: no effect on cardiac function
effect on PC-induced cardiac protection (LVEDP, LVDP, CF, +dP/dt, −dP/dt) in WT hearts ([4]; CAPZ 10^−7 M, CGRP8-37 10^−6 M, RP67580 10^−7 M): abolished
effect on CF in WT hearts ([4]; PC plus I/R): no effect on CF
effect on PC protection assessed by LDH levels after I/R in WT hearts [6]: abolished
SMILES: COc1ccccc1CC(=N)N1C[C@@H]2C(=O)CCC(c3ccccc3)(c3ccccc3)[C@@H]2C1 [RP67580]
effect on protective effect of OLDA in WT hearts [3]: abolished
DSR induced-depressor effect after antagonist [5]: 9.4±2.3 mmHg

SMILES: N=C(N)NC(=O)c1nc(Cl)c(N)nc1N [amiloride]
effect on MAP (words) [7]: no effect on MAP in any group
time of peak urine flow rate (UFR) after injection [7]: 10 min
urine flow / urine sodium excretion (words) [7]: significantly increased
effect on MAP (words) ([7]; listed as Amiloride): no effect
urine flow / urine sodium excretion (words) ([7]; listed as Amiloride): no effect
